As a reminder, the IC50 is the concentration at which inhibition is half-maximal.

In patent US10053431B2, “Tetrahydro-benzodiazepinones” (priority 2013, dated 2018) one finds IC50 data, which are given here for 20 compounds.

One assay concerns the target BIR2 domain of XIAP (Homo sapiens (Human), UniProt P98170, C202A/C213G). Put plainly: TR-FRET assay for BIR2 (inhibition of binding of XIAP BIR2 domain to SMAC-derived Peptide A). The following applies: 6x His-tagged BIR2 domain (aa 124-240 of XIAP) 10 nM, Peptide A 20 nM, TR-FRET; read-out: IC50 BIR2. On the technique in general: In TR-FRET formats the signal depends on donor and acceptor labels being close together.

The target in another assay is BIR3 domain of XIAP (Homo sapiens (Human), UniProt P98170). The assay is described as follows: TR-FRET assay for BIR3 (inhibition of binding of XIAP BIR3 domain to SMAC-derived Peptide A). The following applies: 6x His-tagged BIR3 domain (aa 241-356 of XIAP) 10 nM, Peptide A 20 nM, TR-FRET.

Structures can show the parent of a compound that is named as a salt.

Chain of BIR2 domain of XIAP (P98170 124-240 with tags or gaps C202A/C213G limits assumed): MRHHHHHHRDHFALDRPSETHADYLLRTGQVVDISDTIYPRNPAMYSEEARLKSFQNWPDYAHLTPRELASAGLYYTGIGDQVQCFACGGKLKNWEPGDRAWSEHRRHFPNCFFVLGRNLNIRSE
Chain of BIR3 domain of XIAP (P98170 241-356 with tags or gaps limits assumed): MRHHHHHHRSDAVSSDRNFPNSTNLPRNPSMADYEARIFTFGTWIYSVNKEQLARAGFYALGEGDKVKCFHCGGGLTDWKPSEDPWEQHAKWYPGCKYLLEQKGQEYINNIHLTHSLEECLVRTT

As for `CN[C@@H](C)C(=O)N[C@H]1CN(C(=O)c2ccc3cn[nH]c3c2)c2ccccc2N(Cc2c(C)ccc3ccccc23)C1=O` [Example 158, (2S)-N-[(3S)-1-(1H-indazole-6-carbonyl)-5-[(2-methylnaphthalen-1-yl)methyl]-4-oxo-2,3-dihydro-1,5-benzodiazepin-3-yl]-2-(methylamino)propanamide], the IC50 at BIR2 domain of XIAP is 0.0182 µM; on BIR3 domain of XIAP it was > 54.8 µM.

As to `CN[C@@H](C)C(=O)N[C@H]1CN(C(=O)CS(C)(=O)=O)c2cc(C#N)ccc2N(Cc2c(OC)ccc3c(Br)cccc23)C1=O` [Example 160, (S)-N-((S)-1-((5-bromo-2-methoxynaphthalen-1-yl)methyl)-7-cyano-5-(2-(methylsulfonyl)acetyl)-2-oxo-2,3,4,5-tetrahydro-1H-benzo[b][1,4]diazepin-3-yl)-2-(methylamino)propanamide hydrochloride], the IC50 is 0.0161 µM at BIR2 domain of XIAP and > 54.8 µM at BIR3 domain of XIAP.

Regarding `CN[C@@H](C)C(=O)N[C@H]1CN(C(=O)CS(C)(=O)=O)c2cc(C#N)ccc2N(Cc2nn(-c3ccccc3C#N)c3ccccc23)C1=O` [Example 161, (2S)-N-[(3S)-7-cyano-1-[[1-(2-cyanophenyl)indazol-3-yl]methyl]-5-(2-methylsulfonylacetyl)-2-oxo-3,4-dihydro-1,5-benzodiazepin-3-yl]-2-(methylamino)propanamide;2,2,2-trifluoroacetic acid], the IC50 at BIR2 domain of XIAP was 0.0539 µM; at BIR3 domain of XIAP, > 54.8 µM.

As to `CN[C@@H](C)C(=O)N[C@H]1CN(C(=O)c2ccc(C(C)=O)cc2)c2cc(C#N)ccc2N(Cc2nn(-c3ccccc3C#N)c3ccccc23)C1=O` [Example 162, (S)-N-((S)-5-(4-acetylbenzoyl)-7-cyano-1-((1-(2-cyanophenyl)-1H-indazol-3-yl)methyl)-2-oxo-2,3,4,5-tetrahydro-1H-benzo[b][1,4]diazepin-3-yl)-2-(methylamino)propanamide hydrochloride], the IC50 at BIR2 domain of XIAP is 0.0183 µM; on BIR3 domain of XIAP it was > 54.8 µM.

Turning to `CN[C@@H](C)C(=O)N[C@H]1CN(C(=O)CS(C)(=O)=O)c2cc(C#N)ccc2N(Cc2c(OC)ccc3ccccc23)C1=O` [Example 166, (S)-N-((S)-7-cyano-1-((2-methoxynaphthalen-1-yl)methyl)-5-(2-(methylsulfonyl)acetyl)-2-oxo-2,3,4,5-tetrahydro-1H-benzo[b][1,4]diazepin-3-yl)-2-(methylamino)propanamide hydrochloride], the IC50 on BIR2 domain of XIAP is 0.02 µM; at BIR3 domain of XIAP it was 43.6 µM.

As to `CN[C@@H](C)C(=O)N[C@H]1CNc2cc(C#N)ccc2N(Cc2nn(-c3ccccc3C#N)c3ccccc23)C1=O` [Example 168, (S)-N-((S)-7-cyano-1-((1-(2-cyanophenyl)-1H-indazol-3-yl)methyl)-2-oxo-2,3,4,5-tetrahydro-1H-benzo[b][1,4]diazepin-3-yl)-2-(methylamino)propanamide dihydrochloride], the IC50 on BIR2 domain of XIAP is 0.0957 µM; on BIR3 domain of XIAP, > 54.8 µM.

Take `CN[C@@H](C)C(=O)N[C@H]1CN(C(C)=O)c2cc(C#N)ccc2N(Cc2nn(-c3ccccc3C#N)c3ccccc23)C1=O` [Example 169, (S)-N-((S)-5-acetyl-7-cyano-1-((1-(2-cyanophenyl)-1H-indazol-3-yl)methyl)-2-oxo-2,3,4,5-tetrahydro-1H-benzo[b][1,4]diazepin-3-yl)-2-(methylamino)propanamide hydrochloride]: the IC50 is 0.0332 µM at BIR2 domain of XIAP and > 54.8 µM at BIR3 domain of XIAP.

In the case of `CN[C@@H](C)C(=O)N[C@H]1CN(C(=O)C2CCOCC2)c2cc(C#N)ccc2N(Cc2nn(-c3ccccc3C#N)c3ccccc23)C1=O` [Example 170, (S)-N-((S)-7-cyano-1-((1-(2-cyanophenyl)-1H-indazol-3-yl)methyl)-2-oxo-5-(tetrahydro-2H-pyran-4-carbonyl)-2,3,4,5-tetrahydro-1H-benzo[b][1,4]diazepin-3-yl)-2-(methylamino)propanamide hydrochloride], the IC50 was 0.0255 µM on BIR2 domain of XIAP and > 54.8 µM on BIR3 domain of XIAP.

In the case of `CN[C@@H](C)C(=O)N[C@H]1CN(C(=O)CS(C)(=O)=O)c2ccc(C#N)cc2N(Cc2c(OC)ccc3ccccc23)C1=O` [Example 171, (S)-N-((S)-8-cyano-1-((2-methoxynaphthalen-1-yl)methyl)-5-(2-(methylsulfonyl)acetyl)-2-oxo-2,3,4,5-tetrahydro-1H-benzo[b][1,4]diazepin-3-yl)-2-(methylamino)propanamide hydrochloride], the figures for the IC50 at BIR2 domain of XIAP and at BIR3 domain of XIAP were 0.0303 µM and 41.2 µM, respectively.

As for `CN[C@@H](C)C(=O)N[C@H]1CN(C(=O)CS(C)(=O)=O)c2ccc(C#N)cc2N(Cc2c(C)ccc3ccccc23)C1=O` [Example 172, (S)-N-((S)-8-cyano-1-((2-methylnaphthalen-1-yl)methyl)-5-(2-(methylsulfonyl)acetyl)-2-oxo-2,3,4,5-tetrahydro-1H-benzo[b][1,4]diazepin-3-yl)-2-(methylamino)propanamide hydrochloride], the IC50 at BIR2 domain of XIAP was 0.0947 µM; on BIR3 domain of XIAP it was > 54.8 µM.

`CN[C@@H](C)C(=O)N[C@H]1CN(C(=O)CCOC)c2cc(C#N)ccc2N(Cc2nn(-c3ccccc3C#N)c3ccccc23)C1=O` [Example 173, (S)-N-((S)-7-cyano-1-((1-(2-cyanophenyl)-1H-indazol-3-yl)methyl)-5-(3-methoxypropanoyl)-2-oxo-2,3,4,5-tetrahydro-1H-benzo[b][1,4]diazepin-3-yl)-2-(methylamino)propanamide hydrochloride]: the figures for the IC50 on BIR2 domain of XIAP and at BIR3 domain of XIAP were 0.0376 µM and > 54.8 µM, respectively.

Regarding `CN[C@@H](C)C(=O)N[C@H]1CN(C(=O)c2ccncc2)c2cc(C#N)ccc2N(Cc2nn(-c3ccccc3C#N)c3ccccc23)C1=O` [Example 174, (S)-N-((S)-7-cyano-1-((1-(2-cyanophenyl)-1H-indazol-3-yl)methyl)-5-isonicotinoyl-2-oxo-2,3,4,5-tetrahydro-1H-benzo[b][1,4]diazepin-3-yl)-2-(methylamino)propanamide dihydrochloride], the IC50 at BIR2 domain of XIAP is 0.0224 µM; on BIR3 domain of XIAP, > 54.8 µM.

In the case of `CN[C@@H](C)C(=O)N[C@H]1CN(C(C)=O)c2cc(C#N)ccc2N(Cc2c(C3CC3)ccc3c(C#N)cccc23)C1=O` [Example 176, (S)-N-((S)-5-acetyl-7-cyano-1-((5-cyano-2-cyclopropylnaphthalen-1-yl)methyl)-2-oxo-2,3,4,5-tetrahydro-1H-benzo[b][1,4]diazepin-3-yl)-2-(methylamino)propanamide hydrochloride], the IC50 on BIR2 domain of XIAP came out at 0.0382 µM; on BIR3 domain of XIAP it was 25.6 µM.

As for `CN[C@@H](C)C(=O)N[C@H]1CN(C(C)=O)c2cc(C(F)(F)F)ccc2N(Cc2nn(-c3ccccc3C#N)c3ccccc23)C1=O` [Example 177, (S)-N-((S)-5-acetyl-1-((1-(2-cyanophenyl)-1H-indazol-3-yl)methyl)-2-oxo-7-(trifluoromethyl)-2,3,4,5-tetrahydro-1H-benzo[b][1,4]diazepin-3-yl)-2-(methylamino)propanamide hydrochloride], the IC50 is 0.0353 µM on BIR2 domain of XIAP and > 54.8 µM at BIR3 domain of XIAP.

As for `CN[C@@H](C)C(=O)N[C@H]1CN(C(=O)c2ccc(N)cc2)c2ccccc2N(Cc2c(OCCF)ccc3ccccc23)C1=O` [Example 178, (2S)-N-[(3S)-1-(4-aminobenzoyl)-5-[[2-(2-fluoroethoxy)naphthalen-1-yl]methyl]-4-oxo-2,3-dihydro-1,5-benzodiazepin-3-yl]-2-(methylamino)propanamide;hydrochloride], the IC50 worked out at 0.0142 µM at BIR2 domain of XIAP and 16.1 µM at BIR3 domain of XIAP.

As to `CN[C@@H](C)C(=O)N[C@H]1CN(C(=O)C2CCOCC2)c2cc(C#N)ccc2N(Cc2c(C3CC3)cnc3ccccc23)C1=O` [Example 180, (S)-N-((S)-7-cyano-1-((3-cyclopropylquinolin-4-yl)methyl)-2-oxo-5-(telrahydro-2H-pyran-4-carbonyl)-2,3,4,5-tetrahydro-1H-benzo[b][1,4]diazepin-3-yl)-2-(methylamino)propanamide], the IC50 at BIR2 domain of XIAP turned out to be 0.018 µM; at BIR3 domain of XIAP, 16.5 µM.

As for `CN[C@@H](C)C(=O)N[C@H]1CN(C(C)=O)c2cc(C#N)ccc2N(Cc2c(OC)ccc3c(C#N)cccc23)C1=O` [Example 182, (S)-N-((S)-5-acetyl-7-cyano-1-((5-cyano-2-methoxynaphthalen-1-yl)methyl)-2-oxo-2,3,4,5-tetrahydro-1H-benzo[b][1,4]diazepin-3-yl)-2-(methylamino)propanamide], the concentration for half-maximal inhibition (IC50) at BIR2 domain of XIAP turned out to be 0.0235 µM; at BIR3 domain of XIAP, 32.4 µM.

In the case of `CN[C@@H](C)C(=O)N[C@H]1CN(C(=O)C2CCOCC2)c2cc(C(F)(F)F)ccc2N(Cc2c(C3CC3)cnc3ccccc23)C1=O` [Example 184, (S)-N-((S)-1-((3-cyclopropylquinolin-4-yl)methyl)-2-oxo-5-(tetrahydro-2H-pyran-4-carbonyl)-7-(trifluoromethyr)-2,3,4,5-tetrahydro-1H-benzo[b][1,4]diazepin-3-yl)-2-(methylamino)propanamide], the IC50 was found to be 0.0183 µM on BIR2 domain of XIAP and 15.2 µM at BIR3 domain of XIAP.

Turning to `CN[C@@H](C)C(=O)N[C@H]1CN(C(=O)CS(C)(=O)=O)c2cc(C(F)(F)F)ccc2N(Cc2c(C3CC3)cnc3ccccc23)C1=O` [Example 187, (S)-N-((S)-1-((3-cyclopropylquinolin-4-yl)methyl)-5-(2-(methylsulfonyl)acetyl)-2-oxo-7-(trifluoromethyl)-2,3,4,5-tetrahydro-1H-benzo[b][1,4]diazepin-3-yl)-2-(methylamino)propanamide], the IC50 at BIR2 domain of XIAP was found to be 0.0493 µM; at BIR3 domain of XIAP it was 34.4 µM.

Take `CN[C@@H](C)C(=O)N[C@H]1CN(C(=O)CCS(C)(=O)=O)c2cc(C(F)(F)F)ccc2N(Cc2c(C3CC3)cnc3ccccc23)C1=O` [Example 188, (S)-N-((S)-1-((3-cyclopropylquinolin-4-yl)methyl)-5-(3-(methylsulfonyl)propanoyl)-2-oxo-7-(trifluoromethyl)-2,3,4,5-tetrahydro-1H-benzo[b][1,4]diazepin-3-yl)-2-(methylamino)propanamide]: the results for the IC50 at BIR2 domain of XIAP and on BIR3 domain of XIAP were 0.0225 µM and 25.4 µM, respectively.
